Here are results for eleven molecules from ChEMBL document CHEMBL1201862, “PubChem BioAssay data set” (2004).

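48-hour exposure; five concentrations; linearly interpolated endpoints. Abbreviation: GI50, concentration required for 50% inhibition of growth.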 Activity calls are given as the source filed them. Rule as the data show it: active = GI50 up to about 1.1 µM and inactive = higher.

Test systems include SK-OV-3; COLO 205; NCI-H460; MDA-MB-231; SK-MEL-5; OVCAR-5; HL-60; UO-31; T47D; SF-268; RXF 393; PC-3; NCI/ADR-RES; LOX IMVI; HOP-92; MDA-MB-435; UACC-62; A549; SF-295; HCC 2998.
Holding throughout (experiment): NCI tumour cell line growth inhibition, 48 h

In the case of `O=C1C[C@@H](Sc2ccccc2)C2(OCCO2)C2ON3CCCC[C@H]3[C@H]12` (some centres not stated), the GI50 is 41.5 µM (inactive) with SK-OV-3; 7.8 µM (inactive) in the assay on COLO 205; 9.66 µM (inactive) in the assay on NCI-H460; 12.6 µM (inactive) in the assay with MDA-MB-231; 7.74 µM (inactive) with SK-MEL-5; 17.7 µM (inactive) with OVCAR-5. Further, the GI50 is 1.67 µM (inactive) with HL-60; 3.75 µM (inactive) in the assay with UO-31; 16.2 µM (inactive) in the assay with T47D; 7.55 µM (inactive) in the assay on SF-268; 4.48 µM (inactive) in the assay with RXF 393; 7.36 µM (inactive) with PC-3. Also, the GI50 in the assay with NCI/ADR-RES is 5.78 µM (inactive); in the assay on LOX IMVI it was 2.49 µM (inactive); in the assay on HOP-92, 7 µM (inactive); in the assay with MDA-MB-435, 11.7 µM (inactive); with UACC-62, 6.03 µM (inactive); in the assay on A549 it was 7.36 µM (inactive). Besides, the GI50 with SF-295 is 15.9 µM (inactive).
With `CC(=O)ON(C(C)=O)c1ccc(-c2nc3ccccc3s2)cc1`, the GI50 in the assay on SK-OV-3 was 31.3 µM (inactive); in the assay with COLO 205, 18.7 µM (inactive); in the assay on NCI-H460, 28.4 µM (inactive); in the assay with HCC 2998, 17.4 µM (inactive); with MDA-MB-231, 25 µM (inactive); in the assay on SK-MEL-5, 24.5 µM (inactive). For the same molecule, the GI50 with OVCAR-5 was 34.2 µM (inactive); in the assay on UO-31, 14.6 µM (inactive); in the assay with T47D it was 17.4 µM (inactive); with SF-268, 24.7 µM (inactive); in the assay with RXF 393, 35.3 µM (inactive); in the assay with PC-3, 50.6 µM (inactive). Moreover, the GI50 with NCI/ADR-RES is 16.3 µM (inactive); in the assay on LOX IMVI it was 25.5 µM (inactive); in the assay on HOP-92, 34.7 µM (inactive); in the assay with MDA-MB-435, 26.9 µM (inactive); in the assay with UACC-62, 20.9 µM (inactive); in the assay on A549, 26.3 µM (inactive). Also, in the assay with SF-295, the GI50 is 30.1 µM (inactive).
For the molecule `CCN(CC)CCCNc1ccc2ncn3c4ccc(O)cc4c(=O)c1c23`, the GI50 in the assay on SK-OV-3 is 0.527 µM (active); in the assay on COLO 205 it was 0.908 µM (active); in the assay with NCI-H460, 0.105 µM (active); with HCC 2998, 2.15 µM (inactive); with MDA-MB-231, 1.88 µM (inactive); in the assay on SK-MEL-5, 3.41 µM (inactive). The GI50 in the assay on OVCAR-5 is 1.98 µM (inactive); with UO-31 it was 2.16 µM (inactive); with T47D, > 10 µM (inactive); with SF-268, 1.66 µM (inactive); in the assay with RXF 393 it was 0.14 µM (active); with PC-3, 1.41 µM (inactive). The GI50 in the assay on NCI/ADR-RES was > 10 µM (inactive); in the assay with LOX IMVI it was 0.392 µM (active); in the assay with HOP-92 it was 0.718 µM (active); in the assay with MDA-MB-435, > 10 µM (inactive); in the assay with UACC-62 it was 3.21 µM (inactive); in the assay on A549, 0.231 µM (active). Also, in the assay with SF-295, the GI50 is 1.63 µM (inactive).
With `COC(=O)C1=Nc2c(C)nn(-c3ccccc3)c2N=C(c2ccc([N+](=O)[O-])cc2)C1`, the GI50 with SK-OV-3 is > 10 µM (inactive); with COLO 205 it was > 10 µM (inactive); in the assay on HCC 2998 it was > 10 µM (inactive); with MDA-MB-231, > 10 µM (inactive); with SK-MEL-5, > 10 µM (inactive); in the assay with OVCAR-5 it was 5.98 µM (inactive). Further, the GI50 in the assay on HL-60, in the assay on T47D, in the assay on SF-268, in the assay on PC-3, in the assay with NCI/ADR-RES and in the assay on LOX IMVI was > 10 µM (inactive) each time. The GI50 with HOP-92, in the assay on MDA-MB-435, in the assay with UACC-62, with A549 and in the assay with SF-295 was > 10 µM (inactive) throughout.
Take `Cc1cc(O)cc2c1c(=O)c1ccccc1n2C`: the GI50 with SK-OV-3 is 75.2 µM (inactive); in the assay with COLO 205 it was > 100 µM (inactive); with NCI-H460, 5.33 µM (inactive); in the assay on MDA-MB-231 it was > 100 µM (inactive); in the assay with SK-MEL-5 it was 62.5 µM (inactive); with OVCAR-5, > 100 µM (inactive). Besides, the GI50 with HL-60 was 66.8 µM (inactive); in the assay with UO-31, > 100 µM (inactive); in the assay on T47D it was 73.5 µM (inactive); with SF-268, 31.7 µM (inactive); in the assay with RXF 393, 41.5 µM (inactive); in the assay on PC-3, > 100 µM (inactive). Further, the GI50 in the assay on NCI/ADR-RES was 68.1 µM (inactive); in the assay with LOX IMVI, > 100 µM (inactive); in the assay with HOP-92, 39.4 µM (inactive); in the assay on MDA-MB-435 it was > 100 µM (inactive); in the assay with UACC-62, > 100 µM (inactive); in the assay on A549 it was > 100 µM (inactive). Further, in the assay with SF-295, the GI50 was 52.2 µM (inactive).
As to `CCCN(CCc1ccc(-c2ccccc2)cc1)CCc1ccc2nn[nH]c2c1`, the GI50 in the assay on SK-OV-3 was 14.2 µM (inactive); in the assay on COLO 205 it was 2.55 µM (inactive); in the assay on NCI-H460, 8.51 µM (inactive); in the assay with HCC 2998, 6.71 µM (inactive); in the assay on MDA-MB-231, 13.6 µM (inactive); with SK-MEL-5, 3.91 µM (inactive). Moreover, the GI50 with OVCAR-5 was 17.1 µM (inactive); with UO-31, 9.31 µM (inactive); in the assay on T47D, 4.04 µM (inactive); with SF-268, 19.2 µM (inactive); with RXF 393, 12.2 µM (inactive); in the assay with PC-3, 9.44 µM (inactive). Further, the GI50 was 14.7 µM (inactive) in the assay with NCI/ADR-RES; 10.6 µM (inactive) with LOX IMVI; 5.37 µM (inactive) in the assay with HOP-92; 8.93 µM (inactive) in the assay on MDA-MB-435; 9.23 µM (inactive) in the assay on UACC-62; 13.1 µM (inactive) in the assay with A549. Besides, the GI50 in the assay on SF-295 is 12 µM (inactive).
With `Clc1ccccc1C(c1ccccc1)(c1ccccc1)n1ccnc1` [CLOTRIMAZOLE], the GI50 is 14.5 µM (inactive) in the assay with SK-OV-3; 8.99 µM (inactive) in the assay on COLO 205; 10.7 µM (inactive) in the assay with NCI-H460; 16.5 µM (inactive) with HCC 2998; 14.9 µM (inactive) in the assay on MDA-MB-231; 7.78 µM (inactive) with SK-MEL-5. Further, the GI50 is 11.8 µM (inactive) in the assay on OVCAR-5; 6.56 µM (inactive) in the assay with UO-31; 7.85 µM (inactive) in the assay with T47D; 16.5 µM (inactive) with SF-268; 17.4 µM (inactive) with RXF 393; 7.03 µM (inactive) in the assay with PC-3. For the same molecule, the GI50 was 9.25 µM (inactive) in the assay on NCI/ADR-RES; 11.8 µM (inactive) in the assay on HOP-92; 12.5 µM (inactive) in the assay with MDA-MB-435; 13.3 µM (inactive) in the assay with UACC-62; 8.2 µM (inactive) in the assay with A549; 9.95 µM (inactive) in the assay on SF-295.
Regarding `O=C(/C=C/c1ccc(Cl)c(Cl)c1)Oc1ccc(/C=C2\CCCCC2=O)cc1`, the GI50 in the assay with COLO 205, in the assay with NCI-H460, in the assay with HCC 2998, with MDA-MB-231, in the assay on SK-MEL-5 and in the assay with OVCAR-5 was > 100 µM (inactive) each time. In addition, the GI50 in the assay on HL-60 was 25.4 µM (inactive); in the assay on UO-31, > 100 µM (inactive); in the assay with T47D, > 100 µM (inactive); with SF-268 it was 39 µM (inactive); with PC-3 it was > 100 µM (inactive); with NCI/ADR-RES, > 100 µM (inactive). For the same molecule, the GI50 is > 100 µM (inactive) with LOX IMVI; > 100 µM (inactive) with HOP-92; 78.2 µM (inactive) in the assay on MDA-MB-435; > 100 µM (inactive) with UACC-62; > 100 µM (inactive) in the assay with A549; > 100 µM (inactive) with SF-295.
`COc1ccc2cc(C(=O)NCCc3ccccc3)ccc2c1OC`: the GI50 in the assay on SK-OV-3 is 65.3 µM (inactive); in the assay on COLO 205 it was > 100 µM (inactive); with NCI-H460 it was > 100 µM (inactive); in the assay on HCC 2998, 34.8 µM (inactive); in the assay on MDA-MB-231 it was 33.6 µM (inactive); in the assay on SK-MEL-5, 97.3 µM (inactive). In addition, the GI50 in the assay on OVCAR-5 is > 100 µM (inactive); in the assay on T47D, 26.5 µM (inactive); in the assay on SF-268, 54.3 µM (inactive); in the assay on RXF 393, 30.5 µM (inactive); with PC-3, 91.2 µM (inactive); in the assay on NCI/ADR-RES, 84.3 µM (inactive). The GI50 is > 100 µM (inactive) in the assay with LOX IMVI; 49.1 µM (inactive) with HOP-92; > 100 µM (inactive) in the assay on MDA-MB-435; > 100 µM (inactive) with UACC-62; > 100 µM (inactive) in the assay with A549; 69.2 µM (inactive) with SF-295.
For `C#CCOC(=O)c1ccc(OC(C)=O)cc1`, the GI50 with SK-OV-3, in the assay on COLO 205, with NCI-H460, in the assay on HCC 2998, with MDA-MB-231 and in the assay on SK-MEL-5 was > 100 µM (inactive) each time. Also, the GI50 in the assay with OVCAR-5, with UO-31, with T47D, in the assay with SF-268, in the assay with RXF 393 and with PC-3 was > 100 µM (inactive) in each case. In addition, the GI50 in the assay on NCI/ADR-RES, in the assay with LOX IMVI, in the assay on HOP-92, with MDA-MB-435, in the assay on UACC-62 and in the assay with SF-295 was > 100 µM (inactive) in each case.
For the molecule `C#CCN(Cc1ccc2[nH]c(N)nc(=O)c2c1)c1ccc(C(=O)NC(CCC(=O)O)C(=O)O)cc1` (configuration not stated), the GI50 with SK-OV-3 is > 100 µM (inactive); with COLO 205, 12 µM (inactive); in the assay with NCI-H460 it was 6.95 µM (inactive); in the assay with HCC 2998 it was > 100 µM (inactive); in the assay with MDA-MB-231 it was > 100 µM (inactive); with SK-MEL-5, > 100 µM (inactive). Further, the GI50 in the assay on OVCAR-5 is > 100 µM (inactive); with HL-60 it was > 100 µM (inactive); with UO-31, 5.66 µM (inactive); with T47D, 9.35 µM (inactive); in the assay on SF-268, 17.5 µM (inactive); in the assay on PC-3, > 100 µM (inactive). The GI50 with NCI/ADR-RES is 36.6 µM (inactive); in the assay on LOX IMVI, 3.24 µM (inactive); with HOP-92, 28.7 µM (inactive); with MDA-MB-435, > 100 µM (inactive); with A549 it was 53.5 µM (inactive); with SF-295, 34 µM (inactive).
